The target in data set [1] is T1, CCR4 (Homo sapiens, UniProt P51679).
T1 construct: host or cells: CHO-K1
T1 sequence (P51679 1-360): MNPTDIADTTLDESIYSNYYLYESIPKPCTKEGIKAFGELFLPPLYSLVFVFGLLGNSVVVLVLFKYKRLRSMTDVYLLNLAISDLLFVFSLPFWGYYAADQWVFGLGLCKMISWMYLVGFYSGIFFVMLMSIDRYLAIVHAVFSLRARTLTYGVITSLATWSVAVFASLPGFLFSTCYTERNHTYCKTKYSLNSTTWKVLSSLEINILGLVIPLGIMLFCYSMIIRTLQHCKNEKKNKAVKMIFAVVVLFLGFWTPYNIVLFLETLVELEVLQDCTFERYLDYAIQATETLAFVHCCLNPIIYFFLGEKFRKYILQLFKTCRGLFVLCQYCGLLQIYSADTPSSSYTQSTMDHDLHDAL
Put plainly: FMAT whole cell binding assay. Particulars: CHO-K1 cells expressing human recombinant CCR4; inhibition of FB-MDC binding; read-out: FMAT CCR4 pIC50 (converted). How it is done:
CHO-K1 cells stably expressing the human recombinant CCR4 receptor (Euroscreen; Brussels, Belgium) were cultured in NUT.MIX.F—12(HAM) medium with glutamax-1, containing 10% (v/v) foetal bovine serum and 400 μg ml^−1 geneticin.
Cells were harvested at approximately 70% confluence by treatment with a cell dissociation buffer, and seeded at 5×10^3 cells/100 μl culture medium into wells of a black Costar clear-bottomed 96-well microtitre plates. Plates were incubated overnight at 37° C. in 5% CO2 and used the following day.
Before use, the cell plates were washed twice with 100 μl Hanks balanced salt solution (HBSS).
After two hours incubation in the dark at room temperature, the plates were analysed in an FMAT8100 reader (Applied Biosystems) to measure fluorescence that was associated with binding of FB-MDC to the cells.

The nature of data set [2]: Measurement of plasma protein binding (equilibrium dialysis). The class given is in vitro ADME. Particulars: pooled human plasma, human plasma vs buffer pH 7.4, 37° C., 10 μM compound, read-out: % Bound Human Plasma (converted). As for the experimental part: The extent of plasma protein binding was determined via equilibrium dialysis of a compound between human plasma and aqueous buffer at 37° C. and determination of the concentration of compound in the plasma and buffer by HPLC-MS/MS.
Dialysis cells (molecular weight cut-off 5000) were prepared by rinsing with water followed by soaking in the dialysis buffer for a minimum of 1 hour. The dialysis buffer was isotonic buffered saline pH 7.4. Stock solutions of compound in dimethylsulphoxide were prepared at a concentration of 1 mM. Frozen pooled Human plasma was obtained from volunteers.
The stock DMSO solution of a compound was added to the plasma at a ratio of 10 μl of DMSO to each ml of plasma.
Dialysis cells were then prepared and one half of the cell filled with 750 μl of dialysis buffer and the other half of the cell with 750 μl of plasma solution of compound. Once prepared the cells were sealed and immersed in a water bath at 37° C. These cells were then rotated for a minimum of 4 hours to equilibrate.
After equilibration 500 μl of the buffer samples were removed and added to HPLC vials along with 100 μl of plasma (sample in 6-fold diluted plasma), and 100 μl of the plasma samples were removed and added to HPLC vials along with 500 μl of dialysis buffer (sample in 6-fold diluted plasma).
The samples were then analysed using HPLC-MS/MS.
The concentration of compound in the samples were determined using MassLynx version 4.0 software (produced by Waters/Micromass) that automatically calculated a calibration curve and the concentration of compound in the cells. Plasma protein binding was determined from the calibration curve as the percentage of compound bound in human plasma (% bound) using the following equation wherein the factor in the numerator accounts for the small dilution of the aqueous samples with plasma and the factor of 6 in the denominator serves to correct for the 6-fold dilution of the plasma samples with buffer;
(In general: In equilibrium dialysis only unbound substance equilibrates across the membrane.)

For data set [3], the target named is T1, CCR4. Put plainly: Predicted whole blood potency. Particulars: calculated: CCR4 pIC50+Log((100−% Bound)/100). How it is done: Predicted whole blood potency is a measure of the combined effects of CCR4 activity and plasma protein binding, and is calculated by the formula: Whole Blood Potency=CCR4 pIC50+Log((100−% Bound)/100).
In data set [4] the test system is salmonella typhimurium LT2 strains TA98 and TA100. Description: Metabolite testing: mutagenicity (Maron and Ames test). The class given is cell-based. Particulars: strains TA98 and TA100, with or without metabolic activation (rat liver S9). How it is done:
5-Fluoro-3-methoxy-2-pyrazinamine and 6-fluoro-3-methoxy-2-pyrazinamine were tested for mutagenicity according to the test procedure of Maron and Ames described in Mutation Res. 1983; 113:173-215 using salmonella typhimurium LT2 strains TA98 and TA100. For metabolic activation a homogenate of liver from Aroclor 1254-treated rats (post-mitochondrial fraction (S9) purchased from Molecular Toxicology Inc., Boone, N.C., USA) was added to agar plates (without histidine) together with the test compound and the bacterial tester strains; the complete activation system employed was: phosphate buffer (0.1 mol/L, pH 7.4):100 mmol/L; magnesium chloride: 8 mmol/L; potassium chloride: 33 mmol/L; nicotinamide adenine dinucleotide phosphate: 4 mmol/L; glucose-6-phosphate:5 mmol/L; and rat liver homogenate (S9 fraction):10% v/v. The mean number of revertant colonies and sample standard deviation (from control plates) were calculated for each test group. A test compound was considered to be mutagenic when the following criteria were satisfied: i) the number of revertant colonies in any strain increased in the presence of one or more dose of the test compound, with or without metabolic activation ii) there was a dose-related increase in the number of revertant colonies, and iii) any increase was reproducible.
Background: In the Ames test, an excess of revertant colonies over the control signals mutagenicity.

In the case of `COc1nc(F)c(CO)nc1NS(=O)(=O)c1cccc(Cl)c1Cl` [Example 6, 2,3-Dichloro-N-[5-fluoro-6-(hydroxymethyl)-3-methoxypyrazin-2-yl]-benzenesulfonamide], at CCR4 [1], the IC50 was 6.31 nM. Besides, in data set [2], the fraction unbound at 10 µM was 0.005. The “Whole Blood Potency” value at CCR4 [3] is recorded as 5.9.
Take `COc1nc(F)cnc1NS(=O)(=O)c1cccc(Cl)c1F` [Example 5, 3-Chloro-2-fluoro-N-(5-fluoro-3-methoxypyrazin-2-yl)-benzenesulfonamide]: the IC50 at CCR4 [1] was 10 nM. In addition, the fraction unbound at 10 µM in data set [2] is 0.011. For the same molecule, the “Whole Blood Potency” value on CCR4 [3] is given as 6.0.
Regarding `COc1nc(F)cnc1NS(=O)(=O)c1cccc(Cl)c1C` [Example 7, 3-Chloro-N-(5-fluoro-3-methoxypyrazin-2-yl)-2-methyl-benzenesulfonamide], the IC50 on CCR4 [1] is 3.98 nM. The fraction unbound at 10 µM in data set [2] is 0.004. Moreover, at CCR4 [3], the “Whole Blood Potency” value is 6.0.
For `COc1nc(F)cnc1N` [5-fluoro-3-methoxy-2-pyrazinamine, 5-Fluoro-3-methoxy-2-pyrazinamine], the mutagenicity test result in data set [4] is “negative”.
For the molecule `COc1nc(F)cnc1NS(=O)(=O)c1cccc(Cl)c1Cl` [Example 2, 2,3-dichloro-N-(5-fluoro-3-methoxypyrazin-2-yl)-benzenesulfonamide], the IC50 on CCR4 [1] was 3.16 nM. Also, the fraction unbound at 10 µM in data set [2] is 0.006. The “Whole Blood Potency” value at CCR4 [3] was 6.3.
The like results for `COc1nc(Cl)cnc1NS(=O)(=O)c1cccc(Cl)c1Cl` [Ex. 5 WO03/059893, 2,3-dichloro-N-(5-chloro-3-methoxy-2-pyrazinyl)benzenesulphonamide, reference compound] were, in that order, 12.6 nM, 0.002 and 5.2.
On the same counts, the results for `COc1nc(CO)c(F)nc1NS(=O)(=O)c1cccc(Cl)c1Cl` [Example 4, 2,3-Dichloro-N-[6-fluoro-5-(hydroxymethyl)-3-methoxypyrazin-2-yl]-benzenesulfonamide] are 15.8 nM, 0.013 and 5.9.
On to `COc1nc(Br)cnc1NS(=O)(=O)c1cccc(Cl)c1Cl` [Ex. 8 WO03/059893, 2,3-dichloro-N-(5-bromo-3-methoxy-2-pyrazinyl)benzenesulphonamide, reference compound], for which, on CCR4 [1], the IC50 was 5.01 nM. The fraction unbound at 10 µM in data set [2] is 0.002. Moreover, the “Whole Blood Potency” value at CCR4 [3] is reported as 5.6.
Turning to `COc1nc(F)cnc1NS(=O)(=O)c1cccc(F)c1Cl` [Example 1, 2-Chloro-3-fluoro-N-(5-fluoro-3-methoxypyrazin-2-yl)-benzenesulfonamide], on CCR4 [1], the IC50 was 5.01 nM. Besides, the fraction unbound at 10 µM in data set [2] was 0.01. Also, on CCR4 [3], the “Whole Blood Potency” value is listed as 6.3.
Turning to `COc1ncc(F)nc1N` [6-fluoro-3-methoxy-2-pyrazinamine], in data set [4], the mutagenicity test result was “negative”.
Regarding `COc1nccnc1NS(=O)(=O)c1cccc(Cl)c1Cl` [Ex. 30 WO03/059893, 2,3-dichloro-N-(3-methoxy-2-pyrazinyl)benzenesulphonamide, reference compound], at CCR4 [1], the IC50 is 20 nM. Further, in data set [2], the fraction unbound at 10 µM is 0.011. In addition, the “Whole Blood Potency” value on CCR4 [3] is recorded as 5.7.
As for `COc1ncc(F)nc1NS(=O)(=O)c1cccc(Cl)c1Cl` [Example 3, 2,3-Dichloro-N-(6-fluoro-3-methoxypyrazin-2-yl)-benzenesulfonamide], the IC50 on CCR4 [1] was 3.16 nM. For the same molecule, in data set [2], the fraction unbound at 10 µM is 0.003. Moreover, the “Whole Blood Potency” value on CCR4 [3] is 6.0.

The values are drawn from patent publication US20100144759A1, “NOVEL N-(FLUORO-PYRAZINYL)-PHENYLSULFONAMIDES AS MODULATORS OF CHEMOKINE RECEPTOR CCR4” (AstraZeneca AB, priority 2005, published 2010).
